For assay [1], the target named is TRPM7 (Homo sapiens, UniProt Q96QT4). Particulars: Nadler et al., Jiang et al.; read-out: IC50 for inhibition of TRPM7; cited from earlier work.
The test system of assay [2] is cancer cell lines. Kind of assay: Cell proliferation studies, cancer cell lines in general. Particulars: summary statement. The format is cell-based. As to the method:
(§1) Cells were grown to 70% confluency, trypsinized, counted, and seeded in 96-well flat-bottom plates at a final concentration of 2.5×10^3-5.0×10^3 cells/well in growth media containing 5% FBS (Day 0). Other well sizes and cell densities were used successfully as well. Cells were allowed to incubate in growth media for 24 hours to allow for maximum adhesion. Treatment with the test agent began on Day 1 and continued for 72 hours either with or without retreatment. At the 72 hour time point, viable cell numbers are quantified by the CellTiter-Glo® cell viability assay as described above, or using standard MTT, SRB or BrDU assays. Experiments were repeated at least twice with the same concentrations to determine growth inhibitory activity. […] In an alternative format, this assay was used to screen potential TRPM7 inhibitory compounds at a fixed concentration, usually 5 or 10 uM. Alternatively, lower or higher concentrations were used. […] Thus, for the compounds in Table 1, all are potential anti-cancer agents. Some, like 399 and 509, are more general and may be effective against a wide range of cancers. Others, like 2785, are more specific and may be effective against a subset of cancers.
(§2) Data Collection—For the cell proliferation studies, data from each experiment was collected and expressed as % Cell Growth using the following calculation: % Cell Growth=(ftest/fvehicle)×100 Where ftest is the luminescent signal of the tested sample, and fvehicle is the luminescence of the vehicle in which the drug is dissolved (or appropriate measure for the other viability/proliferation measures). Dose response graphs and IC50 values were generated using standard software using the following variable slope equation: […]

Assay [3] deals with neurons, hepatocytes, cardiomyocytes, retina. Kind of assay: Survival after anoxia in cells and tissues. The assay is classed as cell-based. Particulars: summary statement.
Assay [4] addresses T1, TRPM7 (Mus musculus, UniProt Q923J1).
T1 construct: expressed in transfected cells; host or cells: HEK-293 tSA (HEK-293T) cells, transient transfection with Lipofectamine 2000
Description: PI uptake cell death assay in TRPM7-expressing HEK-293 cells (type of assay from Example 1). The assay is classed as cell-based, murine. The text has this: The TRPM7 channel provides a pathway for mono- and divalent cations into the cell, and is unique in that it contains a functional C-terminal α-kinase domain. […] The induction of chemical anoxia in host cells such as recombinant HEK293 cells can be used to activate TRPM7. This activation is detectable with the use measurements of cellular calcium accumulation. This is achievable with the use of a fluorescent calcium indicator. Alternatively, this activation can also be measured using radiolabelled Ca2+ (^45Ca^2+) as described previously by Sattler et al. (Sattler et al., 1998) and Aarts et al. (Aarts et al., 2003).
Hoechst 33342 was purchased as a 10 mg/mL solution in water (Molecular Probes Inc., Eugene, Oreg.). Propidium iodide (PI) was purchased as a powder and prepared by dissolving in PBS at 1 mg/mL. PI solutions were stored at 4° C. until use. Hoechst and PI were added directly to cell culture to 5 μg/mL and 10 μg/mL respectively. Cells were incubated at room temperature or at 37° C. for 10 minutes to allow for adequate uptake, and fluorescence observed using a NIKON Eclipse TE2000 inverted microscope and TE-FM Epi-Fluorescence attachment (Nikon Canada).
Untransfected cells or cells transfected with the TRPM7/pTracer or ΔPDZ/pTracer construct were plated onto 24-well plates, 24-hours post-transfection. Untransfected cells were plated at 0.75×10^6 cells/well and transfected cells at 1×10^6 cells/well. The plates were coated with poly-D-lysine to strengthen cell adhesion and to minimize cell loss during washes. Cells were loaded by incubation with 5 μM fluo-3 AM and 0.02% pluronic in HBSS at 37° C. for 30 minutes. Following loading, cells were washed with an aglycaemic HBSS containing, in mM: 20 N-methyl-D-glucamine (NMDG), 121 NaCl, 5 KCl, 10 HEPES acid, 10 HEPES-Na salt, 3 NaHCO3, 1 Na-pyruvate, and 1.8 CaCl2, pH adjusted to 7.4 with HCl. Calcium uptake, as assessed by fluo-3 fluorescence, was measured in response to 0, 5, 10, 15, 20, or 25 mM sodium cyanide (NaCN; Mallinckrodt Baker Inc., Phillipsburg, N.J.) dissolved in aglycaemic HBSS. A 250 mM NaCN stock was prepared in water and stored at room temperature for up to 2 weeks. Measurements of fluo-3 fluorescence were taken over a 2 hour period at 10 minutes intervals at room temperature (22-25° C.). Calcium uptake assays were performed 48 hours post-transfection.
Cell death, as assessed by PI uptake, was examined at the end of the 2 hour calcium uptake assay. Cells were stained with 10 μg/mL PI and PI fluorescence measured using the Fluoroskan microplate reader (λ excitation=590 nm, λ emission=630 nm) and accompanying Ascent software (Thermo Electron Corp.). To obtain a reading of maximal fluorescence (Fmax), 0.5% Triton X-100 was added to each well and allowed to incubate for 20 minutes. Cell death assays were performed 48 hours post-transfection.
Data was entered into Excel (Microsoft, Seattle, Wash.) or SigmaPlot (SPSS Inc., Chicago, Ill.) for analysis. Pooled data are presented as the mean of at least 3 separate experiments±sem. Calcium uptake is expressed as a fraction of baseline uptake: ΔFt=(Ft−Fo)/Fo where Ft is the fluorescence at time t, and Fo is the fluorescence at baseline. Cell death is expressed as a percentage of total cell death: cell death (%)=Ft/Fmax×100 where Ft is the fluorescence at time t and Fmax is the maximal fluorescence obtained by permeabilization with Triton X-100. Concentration-response curves were fit by nonlinear regression with a 4 parameter logistic curve represented by the following equation: y=min+{(max−min)/[1+(x/EC50)n]} where y is the response at concentration x, min is the minimal response, max is the maximal response, EC50 is the concentration required for half-maximal response, and n is the Hill slope. Statistical analysis of data was carried out with a two-tailed Student's t test, or a one-way analysis of variance (ANOVA) followed by post hoc pairwise multiple comparisons testing using the Holm-Sidak method, where appropriate. […]

Assay [5] has as its target T2, TRPM7 ion channel (Mus musculus, UniProt Q923J1).
T2 construct: expressed in transfected cells; host or cells: TRPM7-tet-on HEK293 cells
Kind of assay: Whole-cell patch clamp of TRPM7 currents in HEK293 cells. The format is cell-based. The note with it: value shown = concentration at which the compound significantly inhibits the ion channel. As to the method:
To further understand the structure function relationships between the TRPM7 inhibitors identified in the TRPM7-dependent HEK death assay, the activity of a subset of these inhibitors described herein were tested for their ability to inhibit TRPM7 currents in cell systems. Whole-cell patch clamp recordings were used essentially as described to test the TRPM7 inhibitors in HEK293 cells, H9c2 cardiomyocytes and cultured neurons. […] Those that provide >10% inhibition of TRPM7 channel activity in the HEK293 cell system were labeled with the concentration tested (generally 5 uM). Thus, the compounds in this table marked with such a value are able to block the activity gof the TRPM7 ion channel. FIGS. 2A-C provide an example of this for the TRPM7 inhibitor 399 (Structure 9). […] Numbers in brackets indicate the number of independent tests, and the bars represent the SEM.
Whole-cell currents were recorded using an Axopatch 1D or MultiClamp 700B amplifier and were digitized at 10 kHz and low-pass filtered at 2 kHz, at room temperature. pClamp10 software was used for data acquisition and analysis. Patch electrodes were pulled from Borosilicate glass and fire polished to a resistance of 2-4 MΩ. All drugs were administrated directly to cell bodies under recording through the fast exchange perfusion system.
The intracellular solution (ICS) contains (mM) 145 Cs-methanesulfonate, 8 NaCl, l MgCl2, 4.1 CaCl2, 10 EGTA, and 10 HEPES, 5 ATP, pH at 7.4, with 300-305 mOsm. The extracellular solution (ECS) contains (mM) 140 NaCl, 5 KCl, 2 CaCl2, 20 HEPES, and 10 glucose, pH at 7.4 and with 315-320 mOsm.
Voltage stimuli lasting 250 ms were delivered at 5-s intervals with voltage ramps ranging from −100 to +100 mV. The current values at −80 mV and +80 mV on I-V curve represent the measures of inward and outward current respectively.
(§3) Table X and FIGS. 7-51 show screening data for several additional compounds that are variants of M5, M6 or M21. The synthesis of compounds of Table X and FIGS. 7-51 is shown in Appendices A-C. The compounds shown in FIGS. 7-51 can be related to the appropriate row of Table X by the compound number shown in the figures and in the first column of Table X. The compounds in Table X other than M5, M6 and M21 themselves, are believed to be novel. The Table provides a number identifying the compound, its structurer, molecular weight and its cluster (i.e., whether the compound resembles M5, M6 or M21). The three columns relations to PI uptake describe the results of screening the compounds in the type of assay from Example 1. […] The last two columns show an effect on proliferation of Weri retinoblastoma or HeLa cervical cancer cells. Inhibition of proliferation is a measure of anti-neoplastic activity. […] If no data is shown, no test was performed.
A general note: The patch-clamp technique gives a direct electrical read-out from membranes.

The test system of assay [6] is Weri cells. Description: Cell proliferation assay, Weri retinoblastoma cells. The format is cell-based. The method, then:
as §1, §2, §3

[7] abbreviates: Table X, the lower the number, the more potent in protecting against cell death.
Where [8] appears, read: Table X, the lower the number, the more potent.
The mark [9] stands for this setting: Table Y, commercially available compounds.

These results are taken from US9334256B2, “Agents and methods for treating ischemic and other diseases” (NoNO INC., priority 2011, dated 2016).

T1 sequence (Q923J1 whole entry): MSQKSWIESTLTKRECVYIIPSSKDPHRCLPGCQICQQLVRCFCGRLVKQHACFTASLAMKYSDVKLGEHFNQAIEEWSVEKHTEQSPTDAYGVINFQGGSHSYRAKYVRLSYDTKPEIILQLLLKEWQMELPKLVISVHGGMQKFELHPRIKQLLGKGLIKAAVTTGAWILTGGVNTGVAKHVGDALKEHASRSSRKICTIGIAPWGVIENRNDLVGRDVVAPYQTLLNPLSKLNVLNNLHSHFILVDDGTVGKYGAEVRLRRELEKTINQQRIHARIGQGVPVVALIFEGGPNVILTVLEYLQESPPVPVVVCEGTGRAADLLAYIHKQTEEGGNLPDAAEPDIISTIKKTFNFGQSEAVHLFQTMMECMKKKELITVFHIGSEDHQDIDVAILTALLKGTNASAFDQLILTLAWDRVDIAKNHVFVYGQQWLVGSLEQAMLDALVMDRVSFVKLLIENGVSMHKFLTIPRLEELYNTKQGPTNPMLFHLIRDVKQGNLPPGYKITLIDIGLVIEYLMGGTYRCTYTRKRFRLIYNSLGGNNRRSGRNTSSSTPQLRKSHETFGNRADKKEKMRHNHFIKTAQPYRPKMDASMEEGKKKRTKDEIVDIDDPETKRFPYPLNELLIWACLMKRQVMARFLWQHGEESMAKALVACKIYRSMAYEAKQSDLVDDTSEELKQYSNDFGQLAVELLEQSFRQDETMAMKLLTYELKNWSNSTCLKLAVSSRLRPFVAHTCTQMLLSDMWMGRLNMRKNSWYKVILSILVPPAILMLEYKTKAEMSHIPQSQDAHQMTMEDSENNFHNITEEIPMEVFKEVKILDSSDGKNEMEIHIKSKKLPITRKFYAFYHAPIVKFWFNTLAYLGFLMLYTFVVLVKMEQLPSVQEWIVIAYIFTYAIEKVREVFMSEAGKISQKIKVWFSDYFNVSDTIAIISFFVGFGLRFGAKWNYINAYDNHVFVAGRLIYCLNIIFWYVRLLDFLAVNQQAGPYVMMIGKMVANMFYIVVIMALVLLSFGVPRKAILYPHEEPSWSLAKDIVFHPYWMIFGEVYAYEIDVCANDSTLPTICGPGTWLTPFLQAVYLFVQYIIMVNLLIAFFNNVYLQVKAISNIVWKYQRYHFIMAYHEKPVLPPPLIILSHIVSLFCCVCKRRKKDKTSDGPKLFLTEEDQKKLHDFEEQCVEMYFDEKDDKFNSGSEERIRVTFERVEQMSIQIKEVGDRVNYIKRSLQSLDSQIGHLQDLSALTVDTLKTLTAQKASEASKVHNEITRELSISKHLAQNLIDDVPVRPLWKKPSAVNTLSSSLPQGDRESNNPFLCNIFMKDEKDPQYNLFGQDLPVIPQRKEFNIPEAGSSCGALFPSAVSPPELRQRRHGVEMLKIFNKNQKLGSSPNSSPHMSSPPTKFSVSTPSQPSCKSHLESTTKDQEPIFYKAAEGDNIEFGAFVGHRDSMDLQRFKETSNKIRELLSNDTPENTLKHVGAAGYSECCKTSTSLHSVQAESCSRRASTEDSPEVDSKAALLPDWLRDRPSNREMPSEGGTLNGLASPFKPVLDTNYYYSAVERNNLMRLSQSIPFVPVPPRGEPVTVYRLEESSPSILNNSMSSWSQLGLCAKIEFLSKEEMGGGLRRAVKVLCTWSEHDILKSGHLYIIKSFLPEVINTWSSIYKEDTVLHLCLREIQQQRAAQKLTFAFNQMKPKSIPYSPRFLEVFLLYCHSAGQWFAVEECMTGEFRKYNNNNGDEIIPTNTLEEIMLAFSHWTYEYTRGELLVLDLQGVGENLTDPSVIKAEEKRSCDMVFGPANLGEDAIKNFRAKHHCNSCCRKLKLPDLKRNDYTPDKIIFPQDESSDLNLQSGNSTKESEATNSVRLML
T2 sequence (Q923J1 whole entry): as above
TRPM7 (Homo sapiens, UniProt Q96QT4), sequence (Q96QT4 whole entry, species assumed): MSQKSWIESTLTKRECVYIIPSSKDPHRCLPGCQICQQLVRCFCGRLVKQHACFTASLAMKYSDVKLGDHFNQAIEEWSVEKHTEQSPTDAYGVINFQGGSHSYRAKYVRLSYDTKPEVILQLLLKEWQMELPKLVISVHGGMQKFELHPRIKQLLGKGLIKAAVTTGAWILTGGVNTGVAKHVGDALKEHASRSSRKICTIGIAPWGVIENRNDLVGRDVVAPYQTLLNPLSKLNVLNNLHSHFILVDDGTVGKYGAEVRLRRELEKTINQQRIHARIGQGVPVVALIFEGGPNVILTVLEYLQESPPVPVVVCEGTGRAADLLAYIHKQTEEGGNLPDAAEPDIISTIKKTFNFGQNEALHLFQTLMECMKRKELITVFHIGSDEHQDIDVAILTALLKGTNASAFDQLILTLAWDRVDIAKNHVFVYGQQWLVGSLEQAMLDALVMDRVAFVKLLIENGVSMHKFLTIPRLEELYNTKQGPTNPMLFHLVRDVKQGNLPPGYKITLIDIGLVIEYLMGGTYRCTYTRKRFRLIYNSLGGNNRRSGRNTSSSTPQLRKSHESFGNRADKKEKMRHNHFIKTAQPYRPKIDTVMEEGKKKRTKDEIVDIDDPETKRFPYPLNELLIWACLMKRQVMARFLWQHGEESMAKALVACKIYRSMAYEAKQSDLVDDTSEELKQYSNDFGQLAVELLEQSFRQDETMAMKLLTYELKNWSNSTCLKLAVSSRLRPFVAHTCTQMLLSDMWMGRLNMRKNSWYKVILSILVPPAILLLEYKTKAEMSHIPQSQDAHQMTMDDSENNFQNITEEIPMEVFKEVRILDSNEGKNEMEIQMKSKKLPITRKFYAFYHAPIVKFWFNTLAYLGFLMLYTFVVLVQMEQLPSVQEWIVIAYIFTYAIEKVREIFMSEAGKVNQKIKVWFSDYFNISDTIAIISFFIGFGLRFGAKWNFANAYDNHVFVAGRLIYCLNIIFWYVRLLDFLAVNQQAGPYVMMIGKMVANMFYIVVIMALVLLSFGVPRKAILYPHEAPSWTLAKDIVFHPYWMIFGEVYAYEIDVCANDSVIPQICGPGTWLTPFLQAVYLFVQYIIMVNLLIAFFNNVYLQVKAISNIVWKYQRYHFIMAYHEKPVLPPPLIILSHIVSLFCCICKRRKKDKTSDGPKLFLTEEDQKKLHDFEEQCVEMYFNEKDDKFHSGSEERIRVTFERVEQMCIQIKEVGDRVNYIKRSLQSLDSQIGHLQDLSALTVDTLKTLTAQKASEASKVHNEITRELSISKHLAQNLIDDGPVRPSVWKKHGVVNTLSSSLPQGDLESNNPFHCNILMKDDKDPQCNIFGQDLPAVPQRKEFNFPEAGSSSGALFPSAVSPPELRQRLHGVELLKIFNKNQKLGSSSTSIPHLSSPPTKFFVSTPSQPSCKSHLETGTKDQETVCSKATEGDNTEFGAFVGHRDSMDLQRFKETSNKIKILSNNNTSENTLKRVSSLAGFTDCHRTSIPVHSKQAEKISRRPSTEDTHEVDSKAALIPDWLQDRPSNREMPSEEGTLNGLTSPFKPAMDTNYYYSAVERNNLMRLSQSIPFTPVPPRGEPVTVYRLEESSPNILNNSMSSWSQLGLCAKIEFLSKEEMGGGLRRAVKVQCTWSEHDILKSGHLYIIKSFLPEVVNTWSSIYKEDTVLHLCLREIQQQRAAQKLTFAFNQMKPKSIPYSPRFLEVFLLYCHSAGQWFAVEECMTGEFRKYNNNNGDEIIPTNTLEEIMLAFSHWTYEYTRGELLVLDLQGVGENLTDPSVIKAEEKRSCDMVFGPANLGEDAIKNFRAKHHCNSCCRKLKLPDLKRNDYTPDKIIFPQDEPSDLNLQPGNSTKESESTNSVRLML

With `[Mg+2]` [Mg^2+, magnesium], the IC50 (as a rule, the midpoint of a concentration-inhibition curve) in assay [1] is around 600 µM.
Regarding `COc1cc2c(cc1OC)C(c1sc3ccccc3c1Cl)=NCC2` [Compound M6], the “inhibition of proliferation of cancer cell lines” value in assay [2] is listed as “effective in inhibiting proliferation of various cancer cell lines”. Besides, the survival after anoxia entry in assay [3] was “effective in increasing survival after anoxia in neurons and cardiomyocytes”.
On to `Cc1ccc2c(c1)CCCN2C(=O)c1sc2ccccc2c1Cl` [Compound M5], for which, in assay [2], the “inhibition of proliferation of cancer cell lines” value is “effective in inhibiting proliferation of various cancer cell lines”. In addition, the survival after anoxia entry in assay [3] was “effective in increasing survival after anoxia in neurons, hepatocytes, cardiomyoctes, and retina”.
In the case of `COc1cccc2c1CCNC2c1sc2ccccc2c1Cl` (stereo not drawn) [Compound 121], the “Normalized ratio of PI uptake (5 μM)” value in assay [4] (setting [7]) was 0.053. For the same compound, in assay [4] (setting [8]), the “Normalized ratio of PI uptake (10 μM)” value is given as 0.036. In assay [4] (Table X), this compound returned an IC50 of 1.4 µM. Besides, the TRPM7 current in assay [5] is on record as 5 μM (Those that provide >10% inhibition of TRPM7 channel activity in the HEK293 cell system were labeled with the concentration tested (generally 5 uM)).
Take `O=C(NC1CCCc2ccccc21)c1sc2ccccc2c1Cl` (stereo not drawn) [Compound 97]: the “Normalized ratio of PI uptake (5 μM)” value in assay [4] (setting [7]) is reported as 0. For the same compound, the “Normalized ratio of PI uptake (10 μM)” value in assay [4] (setting [8]) was 0.084. This compound returned an IC50 in assay [4] (Table X) of 1.24 µM. Besides, the TRPM7 current in assay [5] is 5 μM (Those that provide >10% inhibition of TRPM7 channel activity in the HEK293 cell system were labeled with the concentration tested (generally 5 uM)).
For `Fc1cccc2c1CCNC2c1sc2ccccc2c1Cl` (stereo not drawn) [Compound 123], in that order: 0.356, 0.128, 4.18 µM and 5 μM (Those that provide >10% inhibition of TRPM7 channel activity in the HEK293 cell system were labeled with the concentration tested (generally 5 uM)).
The matching figures for `Cc1cccc2sc(C3=NCCc4c(F)cccc43)c(Cl)c12` [Compound 117]: 0.02, 0.07, 1.67 µM and 5 μM (Those that provide >10% inhibition of TRPM7 channel activity in the HEK293 cell system were labeled with the concentration tested (generally 5 uM)).
As to `COc1ccccc1C(C)N(C)C(=O)c1cc2ccccc2s1` (stereo not drawn) [T6681713 #6, reference compound], in assay [4] (setting [9]), the “Normalized ratio of PI uptake (5 μM)” value is recorded as 0.328, the “Normalized ratio of PI uptake (10 μM)” value is 0.059 and the IC50 came out at 5.48 µM. Moreover, in assay [6], the inhibition (as a rule, the change of the read-out against control, counted positive when it falls) at 5 µM worked out at 9% and the inhibition at 10 µM was 33%.
Consider `Cc1c(Cc2ccc(Cl)c(Cl)c2)c(=O)oc2cc(O)cc(O)c12` [Compound 131], for which the “Normalized ratio of PI uptake (5 μM)” value in assay [4] (setting [7]) is given as 0.29. In assay [4] (setting [8]), the “Normalized ratio of PI uptake (10 μM)” value is given as 0.03. The same compound displayed an IC50 in assay [4] (Table X) of 3.42 µM. Moreover, the TRPM7 current in assay [5] is on record as 5 μM (Those that provide >10% inhibition of TRPM7 channel activity in the HEK293 cell system were labeled with the concentration tested (generally 5 uM)).
In the case of `COc1ccc2cc(C(=O)N(C)Cc3ccccc3N3CCCC3)[nH]c2c1` [T6899266 #9, reference compound], in assay [4] (setting [9]), the “Normalized ratio of PI uptake (5 μM)” value is reported as 0.029, the “Normalized ratio of PI uptake (10 μM)” value is 0 and the concentration for half-maximal inhibition (IC50) was 2.32 µM. Moreover, in assay [6], the inhibition at 5 µM was found to be 18% and the inhibition at 10 µM was 42%.
Turning to `COc1cc2c(cc1OC)C(c1sc3cc(OC)c(OC)cc3c1Cl)=NCC2` [Compound 120], the “Normalized ratio of PI uptake (5 μM)” value in assay [4] (setting [7]) is reported as 0.079. Also, in assay [4] (setting [8]), the “Normalized ratio of PI uptake (10 μM)” value is 0.066. This compound also had an IC50 in assay [4] (Table X) of 2.55 µM. For the same compound, the TRPM7 current in assay [5] was 5 μM (Those that provide >10% inhibition of TRPM7 channel activity in the HEK293 cell system were labeled with the concentration tested (generally 5 uM)).
